From ChEMBL document CHEMBL3217615, “Novel 3,5-bis(arylidiene)-4-piperidone based monocarbonyl analogs of curcumin: anticancer activity evaluation and mode of action study” (2014)

Columns and labels:
Format in all cases: functional
[1] = system: COLO 205; experiment: Induction of apoptosis in human COLO205 cells assessed as early apoptosis cells level at 10 uM after 24 hrs by Annexin V/propidium iodide staining-based fluorescence microscopy
[2] = system: COLO 205; experiment: Induction of apoptosis in human COLO205 cells assessed as caspase 8 activation at 10 uM by FLICA
[3] = Growth inhibition of human BT549 cells after 48 hrs by sulforhodamine B assay; conditions: BT-549, 48 h
[4] = system: U-251; experiment: Growth inhibition of human U251 cells assessed as cell growth at 10^-6 M after 48 hrs by sulforhodamine B assay; conditions: U-251, 48 h, read-out: Activity
[5] = system: SF-268; experiment: Growth inhibition of human SF268 cells assessed as cell growth at 10^-6 M after 48 hrs by sulforhodamine B assay; conditions: SF-268, 48 h, read-out: Activity
[6] = system: HT-29; experiment: Growth inhibition of human HT-29 cells assessed as cell growth at 10^-6 M after 48 hrs by sulforhodamine B assay; conditions: HT-29, 48 h, read-out: Activity
[7] = Growth inhibition of human HCT15 cells assessed as cell growth at 10^-6 M after 48 hrs by sulforhodamine B assay; conditions: HCT-15, 48 h, read-out: Activity
[8] = system: A498; experiment: Growth inhibition of human A498 cells assessed as cell growth at 10^-7 M after 48 hrs by sulforhodamine B assay; conditions: A498, 48 h, read-out: Activity
[9] = system: MDA-MB-231; experiment: Growth inhibition of human MDA-MB-231 cells assessed as cell growth at 10^-6 M after 48 hrs by sulforhodamine B assay; conditions: MDA-MB-231, 48 h, read-out: Activity
[10] = Growth inhibition of human UACC257 cells assessed as cell growth at 10^-4 M after 48 hrs by sulforhodamine B assay; conditions: UACC-257, 48 h, read-out: Activity
[11] = system: SK-MEL-5; experiment: Growth inhibition of human SK-MEL-5 cells assessed as cell growth at 10^-4 M after 48 hrs by sulforhodamine B assay; conditions: SK-MEL-5, 48 h, read-out: Activity
[12] = system: A549; experiment: Growth inhibition of human A549/ATCC cells assessed as cell growth at 10^-4 M after 48 hrs by sulforhodamine B assay; conditions: A549, 48 h, read-out: Activity
[13] = system: K562; experiment: Growth inhibition of human K562 cells assessed as cell growth at 10^-4 M after 48 hrs by sulforhodamine B assay; conditions: K562, 48 h, read-out: Activity
[14] = Growth inhibition of human UACC62 cells assessed as cell growth at 10^-8 M after 48 hrs by sulforhodamine B assay; conditions: UACC-62, 48 h; for growth at 0.01 µM: read-out: Activity; for TGI: read-out: pTGI (converted)
[15] = system: SK-MEL-2; experiment: Growth inhibition of human SK-MEL-2 cells assessed as cell growth at 10^-8 M after 48 hrs by sulforhodamine B assay; conditions: SK-MEL-2, 48 h; for growth at 0.01 µM: read-out: Activity; for TGI: read-out: pTGI (converted)
[16] = system: SNB-19; experiment: Growth inhibition of human SNB19 cells assessed as cell growth at 10^-8 M after 48 hrs by sulforhodamine B assay; conditions: SNB-19, 48 h; for growth at 0.01 µM: read-out: Activity; for TGI: read-out: pTGI (converted)
[17] = Growth inhibition of human SF539 cells assessed as cell growth at 10^-8 M after 48 hrs by sulforhodamine B assay; conditions: SF-539, 48 h; for growth at 0.01 µM: read-out: Activity; for TGI: read-out: pTGI (converted)
[18] = Growth inhibition of human MOLT4 cells assessed as cell growth at 10^-8 M after 48 hrs by sulforhodamine B assay; conditions: MOLT-4, 48 h; for growth at 0.01 µM: read-out: Activity; for CC50: read-out: pLC50 (the source's name) (converted); for TGI: read-out: pTGI (converted)
[19] = system: HL-60(TB); experiment: Growth inhibition of human HL-60(TB) cells assessed as cell growth at 10^-8 M after 48 hrs by sulforhodamine B assay; conditions: HL-60, 48 h; for growth at 0.01 µM: read-out: Activity; for CC50: read-out: pLC50 (the source's name) (converted); for TGI: read-out: pTGI (converted)
[20] = Growth inhibition of human UO31 cells after 48 hrs by sulforhodamine B assay; conditions: UO-31, 48 h; for CC50: read-out: LC50 (the source's name)
[21] = system: 786-0; experiment: Growth inhibition of human 786-0 cells after 48 hrs by sulforhodamine B assay; conditions: 786-0, 48 h; for CC50: read-out: LC50 (the source's name)
[22] = system: IGROV-1; experiment: Growth inhibition of human IGROV1 cells after 48 hrs by sulforhodamine B assay; conditions: IGROV-1, 48 h; for CC50: read-out: LC50 (the source's name)
[23] = system: SNB-75; experiment: Growth inhibition of human SNB75 cells after 48 hrs by sulforhodamine B assay; conditions: SNB-75, 48 h; for CC50: read-out: LC50 (the source's name)
[24] = Growth inhibition of human MOLT4 cells after 48 hrs by sulforhodamine B assay; conditions: MOLT-4, 48 h; for CC50: read-out: LC50 (the source's name)
[25] = system: K562; experiment: Growth inhibition of human K562 cells after 48 hrs by sulforhodamine B assay; conditions: K562, 48 h; for CC50: read-out: LC50 (the source's name)
[26] = system: HL-60(TB); experiment: Growth inhibition of human HL-60(TB) cells after 48 hrs by sulforhodamine B assay; conditions: HL-60, 48 h; for CC50: read-out: LC50 (the source's name)
[27] = system: MDA-MB-468; experiment: Growth inhibition of human MDA-MB-468 cells assessed as cell growth at 10^-4 M after 48 hrs by sulforhodamine B assay; conditions: MDA-MB-468, 48 h, read-out: Activity
[28] = system: COLO 205; experiment: Growth inhibition of human COLO205 cells assessed as cell growth at 10^-7 M after 48 hrs by sulforhodamine B assay; conditions: COLO 205, 48 h, read-out: Activity
[29] = Growth inhibition of human MOLT4 cells assessed as cell growth at 10^-7 M after 48 hrs by sulforhodamine B assay; conditions: MOLT-4, 48 h, read-out: Activity
[30] = system: CCRF-CEM; experiment: Growth inhibition of human CCRF-CEM cells assessed as cell growth at 10^-7 M after 48 hrs by sulforhodamine B assay; conditions: read-out: Activity
[31] = system: MDA-MB-231; experiment: Growth inhibition of human MDA-MB-231 cells assessed as cell growth at 10^-8 M after 48 hrs by sulforhodamine B assay; conditions: MDA-MB-231, 48 h; for growth at 0.01 µM: read-out: Activity; for TGI: read-out: pTGI (converted)
[32] = system: A498; experiment: Growth inhibition of human A498 cells assessed as cell growth at 10^-8 M after 48 hrs by sulforhodamine B assay; conditions: A498, 48 h; for growth at 0.01 µM: read-out: Activity; for TGI: read-out: pTGI (converted)

SMILES: O=C1/C(=C/c2ccc(Cl)cc2Cl)CN(S(=O)(=O)c2ccccc2)C/C1=C\c1ccc(Cl)cc1Cl
- Activity [1]: 52%
- Activity [2]: 23%
- GI50 [3]: 987 nM
- LC50 [3]: > 100000 nM
- TGI [3]: 4210 nM
- growth at 1 µM [4]: -64%
- growth at 1 µM [5]: 24%
- growth at 1 µM [6]: -8%
- growth at 1 µM [7]: -12%
- growth at 0.1 µM [8]: 61%
- growth at 1 µM [9]: 26%
- growth at 100 µM [10]: 42%
- growth at 100 µM [11]: 60%
- growth at 100 µM [12]: -33%
- growth at 100 µM [13]: 3%
- GI50 [14]: 813 nM
- LC50 [14]: 5750 nM
- growth at 0.01 µM [14]: 94%
- TGI [14]: 2290 nM
- GI50 [15]: 6030 nM
- LC50 [15]: > 100000 nM
- growth at 0.01 µM [15]: 101%
- TGI [15]: > 100000 nM
- GI50 [16]: 316 nM
- LC50 [16]: > 100000 nM
- growth at 0.01 µM [16]: 92%
- TGI [16]: 2880 nM
- GI50 [17]: 427 nM
- LC50 [17]: > 100000 nM
- growth at 0.01 µM [17]: 98%
- TGI [17]: 2090 nM
- GI50 [18]: 589 nM
- growth at 0.01 µM [18]: 104%
- CC50 [18]: > 100000 nM
- TGI [18]: 9120 nM
- GI50 [19]: 562 nM
- growth at 0.01 µM [19]: 97%
- CC50 [19]: > 100000 nM
- TGI [19]: 3980 nM
- GI50 [20]: 236 nM
- TGI [20]: 639 nM
- CC50 [20]: 4750 nM
- GI50 [21]: 241 nM
- TGI [21]: 544 nM
- CC50 [21]: 1710 nM
- GI50 [22]: 317 nM
- TGI [22]: 649 nM
- CC50 [22]: > 100000 nM
- GI50 [23]: 432 nM
- TGI [23]: 7290 nM
- CC50 [23]: > 100000 nM
- GI50 [24]: 594 nM
- TGI [24]: 9050 nM
- CC50 [24]: > 100000 nM
- GI50 [25]: 346 nM
- TGI [25]: > 100000 nM
- CC50 [25]: > 100000 nM
- GI50 [26]: 562 nM
- TGI [26]: 3970 nM
- CC50 [26]: > 100000 nM
- growth at 100 µM [27]: -34%
- growth at 0.1 µM [28]: 107%
- growth at 0.1 µM [29]: 106%
- growth at 0.1 µM [30]: 92%
- GI50 [31]: 468 nM
- growth at 0.01 µM [31]: 102%
- TGI [31]: 2140 nM
- GI50 [32]: 724 nM
- LC50 [32]: > 100000 nM
- growth at 0.01 µM [32]: 67%
- TGI [32]: 4370 nM

SMILES: Cc1ccc(S(=O)(=O)N2C/C(=C\c3cc(F)cc(F)c3)C(=O)/C(=C/c3cc(F)cc(F)c3)C2)cc1
- Activity [1]: 30%
- Activity [2]: 61%
- GI50 [3]: 340 nM
- LC50 [3]: 3520 nM
- TGI [3]: 931 nM
- growth at 1 µM [4]: -31%
- growth at 1 µM [5]: 21%
- growth at 1 µM [6]: -22%
- growth at 1 µM [7]: 5%
- growth at 0.1 µM [8]: 93%
- growth at 1 µM [9]: -11%
- growth at 100 µM [10]: -84%
- growth at 100 µM [11]: -97%
- growth at 100 µM [12]: -34%
- growth at 100 µM [13]: -41%
- GI50 [14]: 214 nM
- LC50 [14]: 1620 nM
- growth at 0.01 µM [14]: 94%
- TGI [14]: 513 nM
- GI50 [15]: 2000 nM
- LC50 [15]: 14800 nM
- growth at 0.01 µM [15]: 105%
- TGI [15]: 4680 nM
- GI50 [16]: 219 nM
- LC50 [16]: 2820 nM
- growth at 0.01 µM [16]: 87%
- TGI [16]: 759 nM
- GI50 [17]: 1200 nM
- LC50 [17]: 6760 nM
- growth at 0.01 µM [17]: 94%
- TGI [17]: 2880 nM
- GI50 [18]: 302 nM
- growth at 0.01 µM [18]: 100%
- CC50 [18]: > 100000 nM
- TGI [18]: 2090 nM
- GI50 [19]: 288 nM
- growth at 0.01 µM [19]: 116%
- CC50 [19]: > 100000 nM
- TGI [19]: 1740 nM
- GI50 [20]: 1090 nM
- TGI [20]: 2370 nM
- CC50 [20]: 5170 nM
- GI50 [21]: 587 nM
- TGI [21]: 1910 nM
- CC50 [21]: 4950 nM
- GI50 [22]: 436 nM
- TGI [22]: 1550 nM
- CC50 [22]: 5170 nM
- GI50 [23]: 1990 nM
- TGI [23]: 5900 nM
- CC50 [23]: 26200 nM
- GI50 [24]: 299 nM
- TGI [24]: 2110 nM
- CC50 [24]: > 100000 nM
- GI50 [25]: 77.2 nM
- TGI [25]: 1370 nM
- CC50 [25]: > 100000 nM
- GI50 [26]: 289 nM
- TGI [26]: 1740 nM
- CC50 [26]: > 100000 nM
- growth at 100 µM [27]: -79%
- growth at 0.1 µM [28]: 106%
- growth at 0.1 µM [29]: 88%
- growth at 0.1 µM [30]: 44%
- GI50 [31]: 269 nM
- LC50 [31]: 8510 nM
- growth at 0.01 µM [31]: 98%
- TGI [31]: 776 nM
- GI50 [32]: 1860 nM
- LC50 [32]: 8710 nM
- growth at 0.01 µM [32]: 96%
- TGI [32]: 4070 nM
